Experimental data as given in paper PMC11501026, “L-Arginine and asymmetric dimethylarginine (ADMA) transport across the mouse blood-brain and blood-CSF barriers: Evidence of saturable transport at both interfaces and CNS to blood efflux” (PLOS ONE, 2024).
Several values for one entry are separate records, joined by “and”; a condition that tells them apart may be missing. Equal entries are not always repeated.

How the values were obtained:
[1] = test system: [3H]-ADMA transport across the blood-brain and blood-CSF barriers; assay: self-inhibition, in situ perfusion: [^3H]-ADMA with 100 μM unlabelled ADMA; format: in vivo, mouse; settings: male, Balb/c, mouse, other: in situ brain perfusion, with unlabelled ADMA 100 µM, [3H] ADMA + [14C] Sucrose + 100uM un-labelled ADMA, 10 mins, Balb/c ♂, 5ml/min, mean
Protocol: (§1) Self-inhibition experiments were also performed. […] Cross-competition experiments were also performed.
(§2) The percentage change in the RTissue uptake values achieved in the absence or presence of an unlabelled inhibitor can be calculated by means of Eq 4.
(§3) %change=RTissue−RInhibition/RTissue×100 Eq 4
(§4) We define RInhibition as the RTissue uptake in the presence of an inhibitor in the artificial plasma.
(§5) A decrease in the uptake of radiolabelled solute in the presence of unlabelled inhibitor is indicative of a saturable influx transport system. Conversely, an increase in the uptake of radiolabelled solute in the presence of unlabelled inhibitor is indicative of a saturable efflux transport system.

[2] = cross-inhibition, in situ perfusion: [^3H]-ADMA with 100 μM unlabelled L-arginine; format: in vivo, mouse; settings: male, Balb/c, mouse, brain homogenate, other: in situ brain perfusion, with 100 µM unlabelled L-arginine, [3H] ADMA + [14C] Sucrose + 100uM Arg, 10 mins, Balb/c ♂, 5ml/min; mean; read-out: uptake, homogenate
Protocol: as §1, §2, §3, §4, §5

[3] = test system: [3H]-ADMA transport across the blood-brain and blood-CSF barriers; assay: as above; format: in vivo, mouse; settings: male, Balb/c, mouse, other: in situ brain perfusion, with 100 µM unlabelled L-arginine, [3H] ADMA + [14C] Sucrose + 100uM Arg, 10 mins, Balb/c ♂, 5ml/min
Protocol: as §1, §2, §3, §4, §5

[4] = test system: [^3H]-ADMA transport across the blood-brain and blood-CSF barriers; assay: as above; format: in vivo, mouse; settings: [3H] ADMA + [14C] Sucrose + 100uM Arg, 10 mins, Balb/c ♂, 5ml/min; individual mice
Protocol: as §1, §2, §3, §4, §5

[5] = in situ brain/choroid plexus perfusion: CNS uptake of [^3H]-arginine, [^3H]-ADMA and [^14C]-sucrose (multiple-time and single-time uptake analysis); settings: for Kp at 30 min / Kp at 20 min: male, BALB/c, mouse, in vivo; for Kp at 20 min: tissue or CSF to plasma ratio (mean), uncorrected, given as fraction

## OC[C@H]1O[C@@](CO)(O[C@H]2O[C@H](CO)[C@@H](O)[C@H](O)[C@H]2O)[C@@H](O)[C@@H]1O [[^14C]-sucrose, reference compound]
[1]; CSF, read-out: uptake into CSF
  Kp at 10 min, 62.5 nM: 0.138
[1]; pituitary gland, read-out: uptake into pituitary gland
  Kp at 10 min, 62.5 nM: 0.0955
[2]
  Kp at 10 min, 62.5 nM: 0.0365
[3]; choroid plexus, individual mice, read-out: uptake into choroid plexus
  Kp at 10 min, 62.5 nM: 0.14
[3]; choroid plexus, mean, read-out: uptake into choroid plexus
  Kp at 10 min, 62.5 nM: 0.145
[3]; hypothalamus, mean, read-out: uptake into hypothalamus
  Kp at 10 min, 62.5 nM: 0.0327
[3]; pituitary gland, mean, read-out: uptake into pituitary gland
  Kp at 10 min, 62.5 nM: 0.113
[3]; pons, mean, read-out: uptake into pons
  Kp at 10 min, 62.5 nM: 0.0462
[4]
  uptake, pellet: 0.001402
[5]; 30 mins, Balb/c ♂, 5ml/min, single mouse
  pineal gland: [14C] Sucrose: 0.7704 and 1.659 and 1.346
[5]; caudate nucleus: [14C] Sucrose, 30 mins, Balb/c ♂, 5ml/min, mean
  Kp at 30 min: 0.0778
[5]; cerebellum: [14C] Sucrose, 30 mins, Balb/c ♂, 5ml/min, mean
  Kp at 30 min: 0.059
[5]; cerebellum: [14C] Sucrose, 30 mins, Balb/c ♂, 5ml/min, single mouse
  Kp at 30 min: 0.0613
[5]; pineal gland: [14C] Sucrose, 30 mins, Balb/c ♂, 5ml/min, mean
  Kp at 30 min: 1.05
[5]; pons: [14C] Sucrose, 30 mins, Balb/c ♂, 5ml/min, mean
  Kp at 30 min: 0.124
[5]; thalamus: [14C] Sucrose, 30 mins, Balb/c ♂, 5ml/min, mean
  Kp at 30 min: 0.0965
[5]; caudate nucleus
  Kp at 20 min: 0.0663
[5]; cerebellum
  Kp at 20 min: 0.0456
[5]; frontal cortex
  Kp at 20 min: 0.0797
[5]; hippocampus
  Kp at 20 min: 0.0477
[5]; hypothalamus
  Kp at 20 min: 0.0657
[5]; pineal gland
  Kp at 20 min: 0.524
[5]; pons
  Kp at 20 min: 0.118
[5]; thalamus
  Kp at 20 min: 0.0672
